Legend:
Ba/F3 cells KRAS G12D = assay: Ba/F3 proliferation assay (KRAS G12D); assay type: cell-based; details: Mus musculus, BaF3, 72 h, AlamarBlue viability
Outline: (§1)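 Ba/F3 cells retrovirally transduced with KRAS G12 mutant, puromycin-selected, grown IL-3-independent; seeded in RPMI-1640 + 10% FCS without IL-3. Logarithmic compound dose series in duplicate, 72 h at 37° C., AlamarBlue fluorescence as % of DMSO control; IC50 from four-parameter non-linear regression.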

AsPC-1 cells = assay: AsPC-1 CTG proliferation assay (120 h) (pancreatic cancer, G12D); assay type: cell-based; details: Homo sapiens, ASPC1
Method: AsPC-1 cells (ATCC CRL-1682) are dispensed into black 384-well plates, flat and clear bottom (Greiner, PNr. 781091) at a density of 500 cells per well in 60 μl RPMI ATCC-Formulation (PAN P04-18047)+10% FCS (fetal calf serum, HyClone, SH30084.03). Cells are incubated overnight at 37° C. in a humidified tissue culture incubator at 5% CO2. Compounds (10 mM stock in DMSO) are added at logarithmic dose series using the ECHO acoustic liquid handler system (Beckman Coulter), normalizing for added DMSO and including DMSO controls. All compound treatments are performed in technical duplicates. For the TO time point measurement, untreated cells are analyzed at the time of compound addition. Plates are incubated for 120 h, and cell viability is measured using CellTiter-Glo luminescent cell viability reagent (Promega product code G7570). Viability (stated as percent of control) is defined as relative luminescence units RLU of each well divided by the RLU of cells in DMSO controls. IC50 values are determined from viability measurements by non-linear regression using a four-parameter model.
IC50 values of representative compounds according to the invention measured with these assays in the indicated cell lines are presented in Table 46.

Ba/F3 cells KRAS G12C = assay: Ba/F3 proliferation assay (KRAS G12C); assay type: cell-based; details: Mus musculus, BaF3, 72 h, AlamarBlue viability
Outline: as §1

[1] = target: KRAS (G12V)::CRAF protein::protein interaction (Homo sapiens (Human), UniProt P01116, C118S/G12V); assay: KRAS TR-FRET assay (KRAS G12V::CRAF, GTP); assay type: binding
Method: (§2) This assay measures the inhibitory effect of compounds on KRAS::CRAF protein::protein interactions in the presence of GTP using Time-resolved fluorescence energy transfer (TR-FRET).
(§3) The following wildtype or mutant alleles of KRAS and CRAF protein have been used at the given concentrations:
KRAS (G12V) 1-169, C118S, N-terminal 6His-tag, C-terminal avi-tag (Boehringer Ingelheim in house protein prep); final assay concentration 15 nM.
(§4) CRAF Ras binding domain, GST-tag, TEV cleavage site (Boehringer Ingelheim in house protein prep); final assay concentration 15 nM.
(§5) Test compounds dissolved in DMSO were dispensed onto assay plates (Proxiplate 384 PLUS, white, PerkinElmer; 6008289) using an Access Labcyte Workstation with the Labcyte Echo 55x. For the chosen highest assay concentration of 100 μM, 150 nl of compound solution was transferred from a 10 mM DMSO compound stock solution. A series of eleven fivefold dilutions per compound was transferred to the assay plate, compound dilutions were tested in duplicates. DMSO was added as backfill to a total volume of 150 nl.
(§6) The assay runs on a fully automated robotic system. To 150 nl of compound dilution 15 μl of a mix including the respective KRAS allele, CRAF (e.g. KRAS (G12D)::CRAF; final assay concentrations see above), GTP nucleotide (Sigma G8877; final assay concentration 10 μM), Lance Eu—W1024 labeled Streptavidin (PerkinElmer, Cat No AD0063; final assay concentration 1.5 nM) and Anti-GST surelight APC (PerkinElmer, Cat No AD0059G; final assay concentration 30 nM) in assay buffer (1×PBS, 0.1% BSA, 0.05% Tween 20) are added into columns 1-23 and 15 μL of the solution without the respective KRAS allele were added to row 24.
(§7) Plates are kept at room temperature in a darkened incubator. After 60 minutes incubation time the signal is measured in a PerkinElmer Envision HTS Multilabel Reader using the TR-FRET LANCE Ultra specs from PerkinElmer.
(§8) Each plate contains 16 wells of a negative control (diluted DMSO instead of test compound; w respective KRAS allele; column 23) and 16 wells of a positive control (diluted DMSO instead of test compound; w/o respective KRAS allele; column 24).
(§9) IC50 values were calculated and analyzed with Boehringer Ingelheim's MEGALAB 50 application using a 4 parametric logistic model.
(§10) Tables of example compounds disclosed herein contain IC50 values determined using the above assays (see Table 44).

[2] = target: KRAS (G12D)::CRAF protein::protein interaction (Homo sapiens (Human), UniProt P01116, G12D); assay: KRAS TR-FRET assay (KRAS G12D::CRAF, GTP); assay type: binding
Method: as §2, §3
KRAS (G12D) 1-169, N-terminal 6His-tag, C-terminal avi-tag (Xtal BioStructures, Inc.); final assay concentration 15 nM,
as §4, §5, §6, §7, §8, §9, §10

[3] = target: KRAS (WT)::CRAF protein::protein interaction (Homo sapiens (Human), UniProt P01116); assay: KRAS TR-FRET assay (KRAS WT::CRAF, GTP); assay type: binding
Method: as §2, §3
KRAS (WT) 1-169, N-terminal 6His-tag, C-terminal avi-tag (Boehringer Ingelheim in house protein prep); final assay concentration 15 nM.
as §4, §5, §6, §7, §8, §9, §10

KRAS (G12V)::CRAF protein::protein interaction, sequence (P01116 other isoform, or with tags, fused parts or gaps G12V/C118S): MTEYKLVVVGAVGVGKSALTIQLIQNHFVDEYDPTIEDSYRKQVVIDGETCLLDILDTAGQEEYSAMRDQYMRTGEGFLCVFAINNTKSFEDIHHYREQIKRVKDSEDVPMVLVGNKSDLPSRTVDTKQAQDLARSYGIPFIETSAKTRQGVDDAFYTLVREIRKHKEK
KRAS (WT)::CRAF protein::protein interaction, sequence (P01116 other isoform, or with tags, fused parts or gaps): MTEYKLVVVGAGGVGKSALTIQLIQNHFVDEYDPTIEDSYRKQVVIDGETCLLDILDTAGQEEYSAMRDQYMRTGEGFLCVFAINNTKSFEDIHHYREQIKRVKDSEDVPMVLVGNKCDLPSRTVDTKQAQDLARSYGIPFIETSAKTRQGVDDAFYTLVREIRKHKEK
KRAS (G12D)::CRAF protein::protein interaction, sequence (P01116 other isoform, or with tags, fused parts or gaps G12D): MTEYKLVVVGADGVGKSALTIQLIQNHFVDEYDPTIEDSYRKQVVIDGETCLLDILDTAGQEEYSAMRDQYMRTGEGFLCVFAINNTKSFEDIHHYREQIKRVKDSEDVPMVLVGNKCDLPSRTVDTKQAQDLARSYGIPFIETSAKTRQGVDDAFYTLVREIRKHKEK

SMILES | IC50 (Ba/F3 cells KRAS G12D) [nM] | IC50 (AsPC-1 cells) [nM] | IC50 (Ba/F3 cells KRAS G12C) [nM] | IC50 [1] [nM] | IC50 [2] [nM] | IC50 [3] [nM]
CO[C@H]1CCN(C)[C@@H]1[C@H](C)Oc1nc(-c2onc3c2CCC[C@@]32CCCc3sc(N)c(C#N)c32)nc2c1n(C)c(=O)n2[C@@H]1CCOC1 [I-23] | 10 | 540 | 4 | 25 | 52 | 59
C[C@H](Oc1nc(-c2onc3c2CCC[C@@]32CCCc3sc(N)c(C#N)c32)nc2c1n(C)c(=O)n2C1COC1)[C@@H]1CCCN1C [I-24] | 134 | 2760 | 59 | 153 | 565 | 749
C[C@H](Oc1nc(-c2onc3c2CCC[C@@]32CCCc3sc(N)c(C#N)c32)nc2c1n(C)c(=O)n2[C@@H]1CCOC1)C12CCCN1CCC2 [I-25] | 25 | 1300 | 12 | 26 | 53 | 53
C[C@H](Oc1nc(-c2onc3c2CCC[C@@]32CCCc3sc(N)c(C#N)c32)nc2c1n(C)c(=O)n2[C@@H]1CCOC1)[C@@H]1CC[C@H](C)N1C [I-26] | 5 | 854 | 3 | 22 | 58 | 50
C[C@H](Oc1nc(-c2onc3c2CCC[C@@]32CCCc3sc(N)c(C#N)c32)nc2c1n(C)c(=O)n2[C@@H]1CCOC1)[C@@H]1C[C@H](F)CN1C [I-27] | 55 | 2300 | 26 | 196 | 410 | 462
C[C@H](Oc1nc(-c2onc3c2CCC[C@@]32CCCc3sc(N)c(C#N)c32)nc2c1n(C)c(=O)n2[C@@H]1CCOC1)[C@@H]1C[C@@H]2C[C@@H]2N1C [I-28] | 53 | 1720 | 26 | 241 | 434 | 541

Continued, values first:

IC50 (Ba/F3 cells KRAS G12D) [nM] | IC50 (AsPC-1 cells) [nM] | IC50 (Ba/F3 cells KRAS G12C) [nM] | IC50 [1] [nM] | IC50 [2] [nM] | IC50 [3] [nM] | SMILES
14 | 322 | 2 | 18 | 85 | 37 | C[C@H](Oc1nc(-c2onc3c2CCC[C@@]32CCCc3sc(N)c(C#N)c32)nc2c1n(C)c(=O)n2[C@@]12COC[C@@H]1C2)[C@@H]1CCCN1C [I-29]
29 | 972 | 11 | 102 | 163 | 153 | CCn1c(=O)n([C@@H]2CCCOC2)c2nc(-c3onc4c3CCC[C@@]43CCCc4sc(N)c(C#N)c43)nc(O[C@@H](C)[C@@H]3CCCN3C)c21 [I-30]
58 | 1500 | 23 | 191 | 478 | 605 | CC(C)n1c(=O)n([C@@H]2CCOC2)c2nc(-c3onc4c3CCC[C@@]43CCCc4sc(N)c(C#N)c43)nc(O[C@@H](C)[C@@H]3CCCN3C)c21 [I-32]
28 | 267 | 33 | 70 | 45 | 139 | C[C@H](Oc1nc(-c2onc3c2CCC[C@@]32CCCc3sc(N)c(C#N)c32)nc2c1ncn2[C@@H]1CCOC1)[C@@H]1CCCN1C [I-38]
24 | 353 | 24 | 62 | 50 | 52 | Cc1nc2c(O[C@@H](C)[C@@H]3CCCN3C)nc(-c3onc4c3CCC[C@@]43CCCc4sc(N)c(C#N)c43)nc2n1[C@@H]1CCOC1 [I-39]
